ChEMBL document CHEMBL5113404, “Design, synthesis and biological evaluation of new parbendazole derivatives for the treatment of HNSCC” (Eur J Med Chem, 2022)

Key:
[1] = molecular target: Tubulin (Homo sapiens) (UniProt P68371+Q9H4B7+P0DPH7+P68366+Q13509+Q71U36+P04350+Q3ZCM7+P07437+P68363+Q9BQE3+Q6PEY2+Q13885+Q9BVA1+Q9BUF5); experiment: Inhibition of tubulin polymerization (unknown origin) at 20 micromol/L by fluorescence based analysis; format: protein-complex assay; conditions: dose 20.0 µmol/L
[2] = Antiproliferative activity against human HN-6 cells assessed as cell growth inhibition incubated for 72 hrs by CCK-8 assay; format: functional, cell-based; conditions: HN-6, 72 h
[3] = molecular target: Tubulin; experiment: Inhibition of tubulin polymerization (unknown origin) by fluorescence based analysis; format: protein-complex assay, Homo sapiens
[4] = tested on: FaDu; experiment: Antiproliferative activity against human FaDu cells assessed as cell growth inhibition incubated for 72 hrs by CCK-8 assay; format: functional, cell-based; conditions: read-out: IC50
[5] = tested on: CAL-27; experiment: Antiproliferative activity against human CAL-27 cells assessed as cell growth inhibition incubated for 72 hrs by CCK-8 assay; format: functional, cell-based; conditions: CAL-27, 72 h

Compound | inhibition [1] [%] | IC50 [3] [nM] | IC50 [2] [nM] | IC50 [4] [nM] | IC50 [5] [nM]
Cc1ccc2nc(NC(=O)OC(C)C)[nH]c2c1 | 71.6 | 6270 | 595 |  | 
CC(C)OC(=O)Nc1nc2ccc(C(F)(F)F)cc2[nH]1 | 4.37 |  | 1000 |  | 
CCCCc1ccc2nc(NC(=O)C3CCOCC3)[nH]c2c1 | 100 | 4400 | 1180 |  | 
CCCCc1ccc2nc(NC(=O)c3ccco3)[nH]c2c1 | 57.7 | 16200 | 349 |  | 
Cc1cc2nc(NC(=O)OC(C)C)[nH]c2cc1C | 89.4 | 5080 | 135 |  | 
CCCCc1ccc2nc(NC(=O)NCCc3ccccc3)[nH]c2c1 | 38.7 |  | 429 | 775 | 499
CC[C@]1(O)C[C@@H]2CN(CCc3c([nH]c4ccccc34)[C@@](C(=O)OC)(c3cc4c(cc3OC)N(C)[C@H]3[C@@](O)(C(=O)OC)[C@H](OC(C)=O)[C@]5(CC)C=CCN6CC[C@]43[C@@H]65)C2)C1 [VINBLASTINE] |  |  | 0.83 | 4.48 | 1.03
CCCCc1ccc2nc(NC(=O)Cc3ccccc3)[nH]c2c1 | 4.9 |  | > 2000 |  | 
CC(C)OC(=O)Nc1nc2cc(F)c(F)cc2[nH]1 | 12.6 |  | 1370 |  | 
CCCCc1ccc2nc(NC(=O)NC3CCCCC3)[nH]c2c1 | 8.26 |  | 967 |  | 
CC(C)OC(=O)Nc1nc2ccc(C#N)cc2[nH]1 | 3.43 |  | > 2000 |  | 

The next lines start with results.

inhibition [1] [%] | IC50 [3] [nM] | Compound | IC50 [2] [nM] | IC50 [4] [nM] | IC50 [5] [nM]
36.4 |  | CCCCc1ccc2nc(NC(=O)OCCCCl)[nH]c2c1 | 456 |  | 
0 |  | CCCCc1ccc2nc(NC(=O)NCCOC(=O)C(C)C)[nH]c2c1 | 1590 |  | 
0 |  | CCCCCCCOC(=O)Nc1nc2ccc(CCCC)cc2[nH]1 | > 2000 |  | 
0 |  | CCCCc1ccc2nc(NC(=O)OCCCl)[nH]c2c1 | > 2000 |  | 
8.4 |  | C=CCNC(=O)Nc1nc2ccc(CCCC)cc2[nH]1 | 392 | 282 | 216
9.96 |  | CCCCc1ccc2nc(NC(=O)OCC(CC)CCCC)[nH]c2c1 (stereo not given) | > 2000 |  | 
9.65 |  | CCCCc1ccc2nc(NC(=O)NC(C)C)[nH]c2c1 | 856 |  | 
